“Also recorded” adds a separate entry of the source.
Experiments:
[1] = target: T1, APOER2 (Homo sapiens, UniProt Q14114); assay: ELISA cell-free binding of RELN variants to ApoEr2
T1 construct: purchased OnGene (so in the source)
T1 sequence (Q14114 33-963): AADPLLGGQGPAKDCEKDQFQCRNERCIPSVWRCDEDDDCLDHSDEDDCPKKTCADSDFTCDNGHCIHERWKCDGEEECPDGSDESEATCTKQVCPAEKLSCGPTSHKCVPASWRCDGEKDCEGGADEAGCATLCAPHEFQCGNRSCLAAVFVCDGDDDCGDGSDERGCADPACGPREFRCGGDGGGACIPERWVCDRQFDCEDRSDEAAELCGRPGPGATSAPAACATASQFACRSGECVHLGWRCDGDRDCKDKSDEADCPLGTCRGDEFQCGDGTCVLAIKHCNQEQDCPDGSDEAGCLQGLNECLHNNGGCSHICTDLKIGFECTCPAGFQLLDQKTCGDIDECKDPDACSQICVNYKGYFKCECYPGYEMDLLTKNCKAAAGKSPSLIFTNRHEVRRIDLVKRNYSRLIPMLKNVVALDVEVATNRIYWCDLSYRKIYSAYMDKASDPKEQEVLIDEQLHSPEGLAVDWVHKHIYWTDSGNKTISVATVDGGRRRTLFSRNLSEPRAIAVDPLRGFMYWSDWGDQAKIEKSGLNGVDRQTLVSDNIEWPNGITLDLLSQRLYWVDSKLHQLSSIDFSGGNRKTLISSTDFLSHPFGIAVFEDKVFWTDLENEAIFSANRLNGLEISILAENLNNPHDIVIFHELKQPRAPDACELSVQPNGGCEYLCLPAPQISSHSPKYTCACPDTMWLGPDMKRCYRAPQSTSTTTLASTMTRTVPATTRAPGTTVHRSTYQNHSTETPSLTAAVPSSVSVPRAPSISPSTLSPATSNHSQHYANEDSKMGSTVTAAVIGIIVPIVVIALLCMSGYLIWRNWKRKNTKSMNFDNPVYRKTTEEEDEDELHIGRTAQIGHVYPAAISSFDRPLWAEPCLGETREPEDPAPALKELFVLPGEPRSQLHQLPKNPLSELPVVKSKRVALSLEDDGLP
Procedure: Enzyme-linked immunosorbent assay (ELISA) was used to quantify changes in binding of RELN variants (media-derived full-length or CTR-RELN) to either VLDLr or ApoEr2 following an optimized version of a previously published protocol (6). Briefly, ELISA strips (DY008, R&D Systems) were coated with one ng/μL (100 μL/well) of VLDLr (8444-VL, R&D) or ApoEr2 (TP320903, OnGene) receptors diluted in 25 mM Tris HCl, 140 mM NaCl, […], two mM CaCl2), pH 7.4 (TBS-C buffer). After 18 h at four ° C. incubation, plates were blocked one h with three % BSA (22070008-6, Bioworld), 0.05% Tween-20 (Sigma Aldrich) TBS-C buffer. We assessed binding via incubation with 100 μL/well of serial dilutions of recombinant RELN protein (Ser1221-Gln2666, 8546-MR-050, R&D) or RELN variants in TBS-C buffer for one hour at room temperature. For detection, we used goat anti-mouse RELN primary antibody (LS-C793521-100, LS-Bio, 1:2,000, 100 μL/well) as primary antibody for one h at R.T. and (1:10,000; 100 μL/well, donkey anti-goat IgG H&L, HRP, ab6885, Abcam) as secondary antibody for 30 min. at R.T. Between each of the previous steps, plates were washed four times with TBS-C buffer (200 μL/well). Plates were washed three times prior to initiating the colorimetric reaction (DY008, R&D Systems). Stop solution (50 μL/well, DY008, R&D Systems) was added upon five min. incubation and the absorbance of the samples was measured at 450 nm using the Synergy 2 microplate reader (BioTek Instruments). Processing and analysis of the data was done using Gen5 1.11 software and GraphPad Prism, respectively.

[2] = Heparin-sepharose affinity column chromatography, NaCl step gradient; assay type: binding
Procedure: We tested changes in binding to heparin of RELN variants chromatographically using an optimized version of a protocol previously published by our laboratory (1). Briefly, after equilibration of the heparin column (BioVision 6554-1) at R.T., columns were washed with five volumes of degassed 20 mM TRIS-HCl buffer (pH 7.5). Recombinant C-terminus RELN peptides were produced and purified by Innovagen (Sweden): (WT) […](SEQ ID NO:56), and (H3447R) […](SEQ ID NO:53). One mL of 50 μg/mL peptide (H3447 or WT, and H3447R) was recycled through the column five times and the last flow through collected for further analysis. The column was washed five times with the same buffer and the protein eluted using a 0.05 M step gradient of NaCl in 20 mM Tris-HCl (0-1M, one mL per fraction). To ensure the complete release of the protein, the column was washed with five M NaCl 20 mM Tris-HCl. Three independent experiments were conducted for C-terminus RELN WT and H3447R. All eluted fractions were analyzed spectroscopically by reading the absorbance at 280 nm using Nanodrop 2000 Spectrophotometer. Blank corrected fractions were subsequently analyzed using GraphPad Prism 8.
To assess Reelin-heparin binding affinity, Reelin variants were run on a heparin column with steps of 0.05M in a range of 0.05-1M NaCl over 20 1 mL column volumes in 20 mM Tris HCl, as described in Arboleda et. al 2019 (2). Sample fractions were eluted at an increasing NaCl step size to determine the ionic strength needed to disrupt the binding between Reelin and heparin. Therefore, the stronger the interaction, the higher concentration of salt would be needed to disrupt the bond.

binding to APOER2 [1]: unable to bind directly
Sequence: RKQNYMMNFSRQHGLRRFYNRRRRSLRRYP [CTR-RELN H3447R]
NaCl concentration of peak eluted fraction from heparin column ([2]; 0.05 M NaCl step gradient in 20 mM Tris HCl, UV 280 nm): 0.7 M NaCl
binding to and release from heparin column ([2]; affinity chromatography, NaCl gradient): bound to heparin; also recorded: required higher NaCl salt concentrations to be released

— patent US20260139017A1, “COMPOSITIONS AND METHODS USING REELIN IN ALZHEIMER'S DISEASE” (The General Hospital Corporation, priority 2022, published 2026)
